Legend:
[1] = target: Receptor-interacting serine/threonine-protein kinase 1 (Homo sapiens) (UniProt Q13546); conditions: Compound concentration 1000.0 nM
[2] = test system: Serine/threonine-protein kinase B-raf (Homo sapiens), P15056 [V600E]; conditions: Compound concentration 1000.0 nM
[3] = target: Mitogen-activated protein kinase kinase kinase 6 (Homo sapiens) (UniProt O95382); conditions: Compound concentration 1000.0 nM
[4] = test system: Epidermal growth factor receptor (Homo sapiens), P00533 [UNDEFINED MUTATION]; conditions: Compound concentration 1000.0 nM
[5] = target: Beta-1 adrenergic receptor (Homo sapiens) (UniProt P08588); conditions: Compound concentration 10.0 uM
[6] = target: Myotonin-protein kinase (Homo sapiens) (UniProt Q09013); conditions: Compound concentration 1000.0 nM
Sequence of Myotonin-protein kinase (Homo sapiens) (Q09013 whole entry): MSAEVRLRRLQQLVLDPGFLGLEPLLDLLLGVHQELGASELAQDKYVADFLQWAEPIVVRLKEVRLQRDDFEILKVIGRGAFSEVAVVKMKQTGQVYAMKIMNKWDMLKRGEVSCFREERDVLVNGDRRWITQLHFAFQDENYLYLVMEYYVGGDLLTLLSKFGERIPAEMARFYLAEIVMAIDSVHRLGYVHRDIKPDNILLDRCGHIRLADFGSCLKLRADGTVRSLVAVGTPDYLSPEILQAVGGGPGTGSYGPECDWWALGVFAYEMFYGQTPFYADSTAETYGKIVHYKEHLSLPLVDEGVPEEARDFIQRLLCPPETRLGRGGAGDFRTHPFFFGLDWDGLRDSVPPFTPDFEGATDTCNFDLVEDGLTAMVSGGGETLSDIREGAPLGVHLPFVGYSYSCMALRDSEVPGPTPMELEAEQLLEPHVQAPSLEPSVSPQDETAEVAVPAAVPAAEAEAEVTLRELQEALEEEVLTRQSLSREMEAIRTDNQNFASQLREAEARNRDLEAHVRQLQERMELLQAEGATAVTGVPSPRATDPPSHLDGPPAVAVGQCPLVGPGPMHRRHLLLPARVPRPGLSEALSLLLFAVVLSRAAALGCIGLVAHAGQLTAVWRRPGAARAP

[7] = target: Mitogen-activated protein kinase kinase kinase kinase 4 (Homo sapiens) (UniProt O95819); conditions: Compound concentration 1000.0 nM
Sequence of Mitogen-activated protein kinase kinase kinase kinase 4 (Homo sapiens) (O95819 2-1239 limits assumed): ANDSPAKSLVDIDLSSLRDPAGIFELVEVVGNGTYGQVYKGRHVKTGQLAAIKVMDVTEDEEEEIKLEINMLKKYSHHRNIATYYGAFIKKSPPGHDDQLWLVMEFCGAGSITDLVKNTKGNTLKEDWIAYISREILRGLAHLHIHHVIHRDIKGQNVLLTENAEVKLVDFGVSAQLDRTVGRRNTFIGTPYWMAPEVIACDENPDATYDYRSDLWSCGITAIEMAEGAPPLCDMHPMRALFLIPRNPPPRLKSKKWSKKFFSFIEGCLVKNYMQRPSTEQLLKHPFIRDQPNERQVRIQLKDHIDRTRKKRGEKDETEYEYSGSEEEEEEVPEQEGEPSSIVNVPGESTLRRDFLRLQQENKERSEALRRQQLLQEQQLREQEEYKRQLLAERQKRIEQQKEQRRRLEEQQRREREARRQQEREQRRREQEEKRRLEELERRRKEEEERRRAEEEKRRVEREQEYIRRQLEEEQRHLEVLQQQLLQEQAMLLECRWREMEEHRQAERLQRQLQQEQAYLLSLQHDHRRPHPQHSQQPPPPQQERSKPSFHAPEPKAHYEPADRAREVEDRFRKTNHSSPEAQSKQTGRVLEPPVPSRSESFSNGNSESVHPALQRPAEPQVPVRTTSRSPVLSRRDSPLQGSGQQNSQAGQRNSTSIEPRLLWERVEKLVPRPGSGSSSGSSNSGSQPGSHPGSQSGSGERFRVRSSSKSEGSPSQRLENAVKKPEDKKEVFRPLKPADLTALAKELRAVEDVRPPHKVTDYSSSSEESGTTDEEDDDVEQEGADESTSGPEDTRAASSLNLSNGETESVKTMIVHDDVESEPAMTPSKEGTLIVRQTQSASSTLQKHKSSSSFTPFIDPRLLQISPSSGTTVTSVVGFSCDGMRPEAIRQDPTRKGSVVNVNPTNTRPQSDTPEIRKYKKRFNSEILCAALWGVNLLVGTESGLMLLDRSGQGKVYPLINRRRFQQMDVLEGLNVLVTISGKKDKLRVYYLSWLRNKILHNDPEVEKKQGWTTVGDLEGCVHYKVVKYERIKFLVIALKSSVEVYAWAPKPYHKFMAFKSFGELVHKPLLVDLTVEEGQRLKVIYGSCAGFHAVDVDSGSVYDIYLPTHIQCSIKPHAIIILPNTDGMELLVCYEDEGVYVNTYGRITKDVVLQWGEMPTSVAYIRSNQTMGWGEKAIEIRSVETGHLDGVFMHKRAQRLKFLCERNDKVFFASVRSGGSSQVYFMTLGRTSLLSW

[8] = target: Serine/threonine-protein kinase PAK 5 (Homo sapiens) (UniProt Q9P286); conditions: Compound concentration 1000.0 nM
[9] = target: Serine/threonine-protein kinase B-raf (Homo sapiens) (UniProt P15056); conditions: Compound concentration 1000.0 nM
[10] = target: Macrophage colony-stimulating factor 1 receptor (Homo sapiens) (UniProt P07333); conditions: Compound concentration 1000.0 nM
[11] = target: Tyrosine-protein kinase Srms (Homo sapiens) (UniProt Q9H3Y6); conditions: Compound concentration 1000.0 nM
[12] = target: Serine/threonine-protein kinase PRP4 homolog (Homo sapiens) (UniProt Q13523); conditions: Compound concentration 1000.0 nM
[13] = target: Inhibitor of nuclear factor kappa-B kinase subunit alpha (Homo sapiens) (UniProt O15111); conditions: Compound concentration 1000.0 nM
[14] = target: Bone morphogenetic protein receptor type-1B (Homo sapiens) (UniProt O00238); conditions: Compound concentration 1000.0 nM
[15] = target: NUAK family SNF1-like kinase 1 (Homo sapiens) (UniProt O60285); conditions: Compound concentration 1000.0 nM
[16] = target: Serine/threonine-protein kinase pim-2 (Homo sapiens) (UniProt Q9P1W9); conditions: Compound concentration 1000.0 nM
[17] = target: Mitogen-activated protein kinase 15 (Homo sapiens) (UniProt Q8TD08); conditions: Compound concentration 1000.0 nM
[18] = target: Mitogen-activated protein kinase kinase kinase kinase 5 (Homo sapiens) (UniProt Q9Y4K4); conditions: Compound concentration 1000.0 nM
[19] = target: Mitogen-activated protein kinase 1 (Homo sapiens) (UniProt P28482); conditions: Compound concentration 1000.0 nM
[20] = target: Fibroblast growth factor receptor 3 (Homo sapiens) (UniProt P22607); conditions: Compound concentration 1000.0 nM
[21] = target: Protein kinase C epsilon type (Homo sapiens) (UniProt Q02156); conditions: Compound concentration 1000.0 nM
[22] = target: Serine/threonine-protein kinase ULK3 (Homo sapiens) (UniProt Q6PHR2); conditions: Compound concentration 1000.0 nM
[23] = target: RAC-gamma serine/threonine-protein kinase (Homo sapiens) (UniProt Q9Y243); conditions: Compound concentration 1000.0 nM
[24] = target: Serine/threonine-protein kinase Nek2 (Homo sapiens) (UniProt P51955); conditions: Compound concentration 1000.0 nM
[25] = target: Fibroblast growth factor receptor 2 (Homo sapiens) (UniProt P21802); conditions: Compound concentration 1000.0 nM
[26] = target: Calcium/calmodulin-dependent protein kinase type II subunit delta (Homo sapiens) (UniProt Q13557); conditions: Compound concentration 1000.0 nM
[27] = target: Protein kinase C iota type (Homo sapiens) (UniProt P41743); conditions: Compound concentration 1000.0 nM
[28] = target: Vascular endothelial growth factor receptor 2 (Homo sapiens) (UniProt P35968); conditions: Compound concentration 1000.0 nM
[29] = target: Serine/threonine-protein kinase 17B (Homo sapiens) (UniProt O94768); conditions: Compound concentration 1000.0 nM
Sequence of Serine/threonine-protein kinase 17B (Homo sapiens) (O94768 whole entry): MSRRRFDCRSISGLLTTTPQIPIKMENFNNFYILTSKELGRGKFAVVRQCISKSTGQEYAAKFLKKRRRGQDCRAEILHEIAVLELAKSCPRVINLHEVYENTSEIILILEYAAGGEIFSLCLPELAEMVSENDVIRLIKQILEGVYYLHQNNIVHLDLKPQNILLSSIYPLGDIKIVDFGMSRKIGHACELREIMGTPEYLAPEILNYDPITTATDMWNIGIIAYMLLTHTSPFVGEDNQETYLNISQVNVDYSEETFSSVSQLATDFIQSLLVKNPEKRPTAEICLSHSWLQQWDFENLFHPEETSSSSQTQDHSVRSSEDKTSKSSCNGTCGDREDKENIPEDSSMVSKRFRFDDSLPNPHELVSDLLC

[30] = target: Serine/threonine-protein kinase mTOR (Homo sapiens) (UniProt P42345); conditions: Compound concentration 1000.0 nM
[31] = target: D(4) dopamine receptor (Homo sapiens) (UniProt P21917); conditions: Compound concentration 10.0 uM
[32] = target: Mitogen-activated protein kinase kinase kinase 5 (Homo sapiens) (UniProt Q99683); conditions: Compound concentration 1000.0 nM
[33] = target: Tyrosine-protein kinase ABL1 (Homo sapiens) (UniProt P00519); conditions: Compound concentration 1000.0 nM
Sequence of Tyrosine-protein kinase ABL1 (Homo sapiens) (P00519 whole entry): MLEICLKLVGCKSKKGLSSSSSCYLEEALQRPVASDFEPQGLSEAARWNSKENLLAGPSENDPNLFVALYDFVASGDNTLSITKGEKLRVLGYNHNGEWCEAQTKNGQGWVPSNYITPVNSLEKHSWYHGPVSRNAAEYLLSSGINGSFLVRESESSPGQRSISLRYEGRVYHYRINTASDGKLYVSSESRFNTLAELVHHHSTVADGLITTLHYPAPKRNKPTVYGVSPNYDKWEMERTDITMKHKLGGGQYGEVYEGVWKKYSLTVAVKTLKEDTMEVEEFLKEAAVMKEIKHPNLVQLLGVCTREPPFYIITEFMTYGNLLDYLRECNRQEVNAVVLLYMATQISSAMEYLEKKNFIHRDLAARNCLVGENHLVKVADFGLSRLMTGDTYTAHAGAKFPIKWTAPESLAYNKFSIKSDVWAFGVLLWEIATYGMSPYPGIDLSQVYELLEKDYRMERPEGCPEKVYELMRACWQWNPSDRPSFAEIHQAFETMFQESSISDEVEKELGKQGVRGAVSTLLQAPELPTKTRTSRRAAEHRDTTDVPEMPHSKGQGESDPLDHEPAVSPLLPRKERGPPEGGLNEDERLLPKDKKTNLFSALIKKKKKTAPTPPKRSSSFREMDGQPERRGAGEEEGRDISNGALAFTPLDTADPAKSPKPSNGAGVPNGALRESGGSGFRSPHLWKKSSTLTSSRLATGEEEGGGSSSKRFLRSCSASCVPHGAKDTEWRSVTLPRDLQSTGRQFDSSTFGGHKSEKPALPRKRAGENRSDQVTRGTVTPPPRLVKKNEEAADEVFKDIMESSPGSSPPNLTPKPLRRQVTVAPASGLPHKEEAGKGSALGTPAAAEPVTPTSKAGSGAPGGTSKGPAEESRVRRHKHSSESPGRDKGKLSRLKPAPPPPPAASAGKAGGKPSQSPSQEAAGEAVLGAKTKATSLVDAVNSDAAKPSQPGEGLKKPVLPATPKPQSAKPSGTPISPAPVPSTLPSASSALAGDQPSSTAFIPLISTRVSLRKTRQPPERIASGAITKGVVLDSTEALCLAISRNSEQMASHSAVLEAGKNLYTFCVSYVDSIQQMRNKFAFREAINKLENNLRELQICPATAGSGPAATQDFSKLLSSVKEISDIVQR

[34] = target: Delta-type opioid receptor (Homo sapiens) (UniProt P41143); conditions: Compound concentration 10.0 uM
[35] = target: Serine/threonine-protein kinase D3 (Homo sapiens) (UniProt O94806); conditions: Compound concentration 1000.0 nM
Sequence of Serine/threonine-protein kinase D3 (Homo sapiens) (O94806 whole entry): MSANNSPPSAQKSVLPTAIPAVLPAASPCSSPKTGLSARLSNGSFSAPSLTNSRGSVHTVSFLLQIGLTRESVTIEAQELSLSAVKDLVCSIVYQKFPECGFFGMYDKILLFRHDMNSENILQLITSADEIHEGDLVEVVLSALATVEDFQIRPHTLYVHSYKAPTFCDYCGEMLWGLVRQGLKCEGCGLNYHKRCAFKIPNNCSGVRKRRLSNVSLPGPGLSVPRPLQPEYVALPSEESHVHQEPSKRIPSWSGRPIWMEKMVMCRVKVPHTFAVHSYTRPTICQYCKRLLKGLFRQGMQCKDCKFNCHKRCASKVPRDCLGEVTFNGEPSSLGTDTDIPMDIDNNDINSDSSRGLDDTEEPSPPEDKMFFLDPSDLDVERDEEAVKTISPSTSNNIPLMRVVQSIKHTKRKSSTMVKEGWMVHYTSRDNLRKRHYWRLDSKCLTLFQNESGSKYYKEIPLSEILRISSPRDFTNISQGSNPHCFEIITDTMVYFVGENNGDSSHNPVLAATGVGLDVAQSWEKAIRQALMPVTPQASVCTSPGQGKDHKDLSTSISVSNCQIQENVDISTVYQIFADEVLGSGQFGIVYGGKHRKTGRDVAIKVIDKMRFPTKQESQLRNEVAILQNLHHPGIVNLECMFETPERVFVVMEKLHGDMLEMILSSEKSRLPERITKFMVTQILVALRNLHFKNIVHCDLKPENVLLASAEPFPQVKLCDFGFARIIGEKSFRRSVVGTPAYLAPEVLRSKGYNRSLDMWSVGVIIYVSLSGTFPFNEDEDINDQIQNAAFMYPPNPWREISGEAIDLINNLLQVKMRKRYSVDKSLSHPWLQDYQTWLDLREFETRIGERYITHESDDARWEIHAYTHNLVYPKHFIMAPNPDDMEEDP

[36] = target: Calcium/calmodulin-dependent protein kinase type 1G (Homo sapiens) (UniProt Q96NX5); conditions: Compound concentration 1000.0 nM
[37] = target: RAC-beta serine/threonine-protein kinase (Homo sapiens) (UniProt P31751); conditions: Compound concentration 1000.0 nM
[38] = target: Serine/threonine-protein kinase N1 (Homo sapiens) (UniProt Q16512); conditions: Compound concentration 1000.0 nM
[39] = target: 3-hydroxy-3-methylglutaryl-coenzyme A reductase (Rattus norvegicus) (UniProt P51639); test: HMGCOARED Eurofins-Panlabs selectivity data (BI); conditions: Compound concentration 10.0 uM
[40] = target: Phosphatidylinositol 4-phosphate 3-kinase C2 domain-containing subunit beta (Homo sapiens) (UniProt O00750); conditions: Compound concentration 1000.0 nM
[41] = target: Serine/threonine-protein kinase OSR1 (Homo sapiens) (UniProt O95747); conditions: Compound concentration 1000.0 nM
[42] = test system: Mast/stem cell growth factor receptor Kit (Homo sapiens), P10721 [V559D,V654A]; conditions: Compound concentration 1000.0 nM
[43] = target: Serine/threonine-protein kinase tousled-like 1 (Homo sapiens) (UniProt Q9UKI8); conditions: Compound concentration 1000.0 nM

Sequence of Receptor-interacting serine/threonine-protein kinase 1 (Homo sapiens) (Q13546 whole entry): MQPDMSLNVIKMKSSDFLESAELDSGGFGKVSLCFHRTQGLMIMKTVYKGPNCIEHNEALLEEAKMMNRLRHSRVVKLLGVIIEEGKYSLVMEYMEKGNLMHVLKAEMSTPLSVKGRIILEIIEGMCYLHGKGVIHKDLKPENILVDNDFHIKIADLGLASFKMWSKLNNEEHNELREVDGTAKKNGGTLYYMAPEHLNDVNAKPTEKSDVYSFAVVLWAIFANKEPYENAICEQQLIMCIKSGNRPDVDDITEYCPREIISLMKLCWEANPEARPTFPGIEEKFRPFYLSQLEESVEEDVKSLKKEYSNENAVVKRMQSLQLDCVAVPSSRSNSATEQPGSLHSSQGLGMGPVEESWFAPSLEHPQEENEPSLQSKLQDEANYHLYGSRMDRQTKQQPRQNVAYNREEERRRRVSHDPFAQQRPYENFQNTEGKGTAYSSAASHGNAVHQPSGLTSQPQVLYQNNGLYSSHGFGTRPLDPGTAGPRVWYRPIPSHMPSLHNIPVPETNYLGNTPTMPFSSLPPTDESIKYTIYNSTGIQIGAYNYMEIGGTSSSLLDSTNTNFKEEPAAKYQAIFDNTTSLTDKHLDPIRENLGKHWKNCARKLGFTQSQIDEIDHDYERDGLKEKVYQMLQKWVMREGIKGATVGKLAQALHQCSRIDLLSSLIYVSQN

Structure (SMILES): CCOCCn1cc(C(=O)Nc2ccc(-n3nc(-c4cccnc4)cc3C(F)(F)F)cn2)ccc1=O [BI 1935]
- residual activity [1]: 88%
- residual activity [2]: 97%
- residual activity [3]: 86%
- residual activity [4]: 92%
- inhibition [5]: -9.69%
- residual activity [6]: 100%
- residual activity [7]: 91%
- residual activity [8]: 98%
- residual activity [9]: 95%
- residual activity [10]: 100%
- residual activity [11]: 79%
- residual activity [12]: 97%
- residual activity [13]: 100%
- residual activity [14]: 71%
- residual activity [15]: 100%
- residual activity [16]: 100%
- residual activity [17]: 100%
- residual activity [18]: 95%
- residual activity [19]: 100%
- residual activity [20]: 84%
- residual activity [21]: 100%
- residual activity [22]: 61%
- residual activity [23]: 100%
- residual activity [24]: 100%
- residual activity [25]: 49%
- residual activity [26]: 100%
- residual activity [27]: 73%
- residual activity [28]: 81%
- residual activity [29]: 81%
- residual activity [30]: 100%
- inhibition [31]: -3.89%
- residual activity [32]: 100%
- residual activity [33]: 94%
- inhibition [34]: -6.39%
- residual activity [35]: 81%
- residual activity [36]: 100%
- residual activity [37]: 100%
- residual activity [38]: 76%
- residual activity [39]: 87%
- residual activity [40]: 72%
- residual activity [41]: 92%
- residual activity [42]: 100%
- residual activity [43]: 100%
